Where a SMILES comes first, the peptide text is derived from it. Bridges are numbered along the chain shown (N, C = ends).
Target: Prolyl endopeptidase (Flavobacterium meningosepticum)
Test: Inhibition of Flavobacterium meningosepticum PEP

IC50: 1.1 µM
Structure (SMILES): CC[C@H](C)[C@H](NC(=O)[C@H](Cc1ccccc1)NC(=O)[C@@H](NC(=O)[C@H](Cc1cnc[nH]1)NC(=O)CNC(=O)CNC(=O)[C@H](Cc1ccccc1)NC(=O)[C@H](CC(C)C)NC(=O)[C@@H]1CC(=O)NCC(=O)N[C@@H](Cc2ccc(O)cc2)C(=O)N2CCC[C@H]2C(=O)N[C@@H](Cc2c[nH]c3ccccc23)C(=O)N[C@@H](Cc2c[nH]c3ccccc23)C(=O)N[C@@H](CC(=O)O)C(=O)N[C@@H](Cc2ccc(O)cc2)C(=O)N[C@@H](CCCNC(=N)N)C(=O)N1)[C@@H](C)O)C(=O)N[C@@H](CO)C(=O)N1CCC[C@H]1C(=O)O [propeptin] (GYPWWDYRDLFGGHTFISP-OH; lactam N-9)
